pEC50, pIC50, pKi: −log10 of the molar value. Where two headings read alike, the source gives them in different places.
What was measured:
[1] = target: T1, mTOR kinase (mTOR(1360-2549)+GBL) (Homo sapiens, UniProt P42345); experiment: In vitro mTOR kinase assay (TR-FRET); format: biochemical; settings: read-out: activity level (Ki) in the mTOR kinase assay
T1 construct: mTOR(1360-2549)+GBL, prepared in-house; made in house
Protocol: (§1) The reaction is stopped by an addition of a Terbium-labeled phospho-specific antibody, e.g., Tb-labeled anti-p4E-BP1 T37/T46, (Invitrogen, product #PR8835A), EDTA, and TR-FRET buffer solution (Invitrogen, Product #PR3756B). Product formation is detected by way of time-resolved fluorescence resonance energy transfer (TR-FRET), which occurs when the phosphorylated substrate and labeled antibody are in close proximity due to phospho-specific binding. Enzymatic activity is measured as an increase in TR-FRET signal using a Perkin Elmer Envision plate reader.
Compound activity is tested in 10 point dose curves starting at the highest final concentration of 10 uM. They are serially diluted in 100% DMSO prior to further dilution with assay buffer. […] 8 μL of solution containing 2 nM Tb-anti-p4E-BP1 antibody & 10 mM EDTA diluted TR-FRET buffer is then added and incubated for 30 minutes to stop the reaction. The plate is scanned with the Envision plate reader. Ki values are calculated in Assay Explorer using the Morrison ATP-competitive tight binding equation for Ki apparent determination.

PC3 cells = experiment: In vitro cell proliferation assay; format: cell-based; settings: Homo sapiens
Protocol: Efficacy of Formula I compounds were measured by a cell proliferation assay employing the following protocol: 1. An aliquot of 20 μl of cell culture containing about 10^3 cells (PC3 or MDAMB361.1) in medium was deposited in each well of a 384-well, opaque-walled plate. 2. Control wells were prepared containing medium and without cells; Cells were allowed to settle overnight. 3. The compound was added to the experimental wells and incubated for 3 days. 4. The plates were equilibrated to room temperature for approximately 30 minutes. 5. A volume of CellTiter-Glo Reagent equal to the volume of cell culture medium present in each well was added. 6. The contents were mixed for 2 minutes on an orbital shaker to induce cell lysis. 7. The plate was incubated at room temperature for 20 minutes to stabilize the luminescence signal. […] Luminescence was recorded and reported in graphs as RLU=relative luminescence units. Alternatively, cells were seeded at optimal density in a 96 well plate and incubated for 4 days in the presence of test compound. […] IC50 values were calculated using a sigmoidal dose response curve fit.

PI3K-alpha = target: T2, PI3K-alpha (Homo sapiens, UniProt P42336); format: biochemical
T2 construct: purchased Upstate Cell Signaling Solutions
T2 sequence (P42336 whole entry, species assumed): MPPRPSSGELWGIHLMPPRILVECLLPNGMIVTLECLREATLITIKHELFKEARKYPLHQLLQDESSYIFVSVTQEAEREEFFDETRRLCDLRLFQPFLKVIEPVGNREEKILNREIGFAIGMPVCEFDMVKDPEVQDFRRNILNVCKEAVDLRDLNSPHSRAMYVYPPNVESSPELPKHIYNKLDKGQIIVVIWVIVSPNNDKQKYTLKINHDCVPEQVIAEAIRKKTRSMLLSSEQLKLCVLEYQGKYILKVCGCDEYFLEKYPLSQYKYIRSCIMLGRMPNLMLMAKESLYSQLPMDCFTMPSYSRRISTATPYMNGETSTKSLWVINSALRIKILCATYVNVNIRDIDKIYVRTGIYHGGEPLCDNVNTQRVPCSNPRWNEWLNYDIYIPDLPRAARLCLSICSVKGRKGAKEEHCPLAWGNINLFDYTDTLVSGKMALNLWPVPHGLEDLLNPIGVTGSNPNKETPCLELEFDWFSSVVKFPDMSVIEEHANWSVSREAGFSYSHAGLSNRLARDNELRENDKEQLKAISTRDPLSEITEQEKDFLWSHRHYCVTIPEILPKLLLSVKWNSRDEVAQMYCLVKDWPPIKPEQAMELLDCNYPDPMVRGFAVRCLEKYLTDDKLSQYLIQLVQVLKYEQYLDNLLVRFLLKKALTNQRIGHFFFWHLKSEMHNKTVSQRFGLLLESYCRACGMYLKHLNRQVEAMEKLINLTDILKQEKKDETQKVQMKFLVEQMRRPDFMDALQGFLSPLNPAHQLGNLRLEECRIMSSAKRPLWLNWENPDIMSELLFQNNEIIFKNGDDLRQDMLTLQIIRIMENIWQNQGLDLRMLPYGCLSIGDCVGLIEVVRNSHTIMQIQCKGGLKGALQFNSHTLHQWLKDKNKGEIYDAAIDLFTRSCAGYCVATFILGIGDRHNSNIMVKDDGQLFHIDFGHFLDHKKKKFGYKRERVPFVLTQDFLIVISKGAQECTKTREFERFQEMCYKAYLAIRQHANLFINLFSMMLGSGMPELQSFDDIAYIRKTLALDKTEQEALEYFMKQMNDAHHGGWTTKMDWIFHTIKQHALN
T2 sequence (P27986 whole entry partner, species assumed): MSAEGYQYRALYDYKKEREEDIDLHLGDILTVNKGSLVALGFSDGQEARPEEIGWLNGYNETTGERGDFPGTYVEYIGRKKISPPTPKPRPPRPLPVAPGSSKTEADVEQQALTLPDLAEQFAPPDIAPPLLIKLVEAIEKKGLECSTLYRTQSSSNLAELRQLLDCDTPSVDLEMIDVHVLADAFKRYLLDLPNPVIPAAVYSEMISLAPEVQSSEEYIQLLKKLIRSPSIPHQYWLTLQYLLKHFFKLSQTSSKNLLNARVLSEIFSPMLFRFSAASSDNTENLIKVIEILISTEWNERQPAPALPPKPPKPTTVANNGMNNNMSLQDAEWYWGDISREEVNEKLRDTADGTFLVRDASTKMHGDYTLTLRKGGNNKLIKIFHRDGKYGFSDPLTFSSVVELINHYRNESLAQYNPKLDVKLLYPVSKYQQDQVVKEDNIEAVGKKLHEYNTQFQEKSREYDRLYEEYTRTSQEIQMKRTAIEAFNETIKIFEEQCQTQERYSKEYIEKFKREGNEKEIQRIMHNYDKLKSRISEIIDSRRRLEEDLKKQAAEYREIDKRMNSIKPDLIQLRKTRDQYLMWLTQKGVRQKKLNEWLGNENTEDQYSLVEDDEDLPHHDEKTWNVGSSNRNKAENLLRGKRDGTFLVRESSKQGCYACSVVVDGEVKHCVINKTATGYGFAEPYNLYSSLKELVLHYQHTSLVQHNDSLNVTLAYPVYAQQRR
Protocol: as §1, with “The kinase activity of mTOR enzyme is assessed by incubating purified recombinant enzyme (mTOR(1360-2549)+GBL, prepared in-house) in a reaction mixture containing ATP, MnCl2, and a fluorescently labeled mTOR substrate, e.g., GFP-4E-BP1 (Invitrogen, product #PR8808A). The” for “The”, “reader. The assay is performed in a 384-well Proxiplate Plus (Perkin Elmer. Product #6008269) using the following protocol:” for “reader.”
Compound activity is tested in 10 point dose curves starting at the highest final concentration of 10 uM. They are serially diluted in 100% DMSO prior to further dilution with assay buffer. The reaction mixture (8 uls) containing 0.25 nM mTOR+GBL enzyme, 400 nM GFP-4E-BP1, 8 uM ATP, 50 mM Hepes pH 7.5, 0.01% Tween 20, 10 mM MnCl2, 1 mM EGTA, 1 mM DTT, 1% DMSO (+/−compound) is incubated at room temperature for 30 minutes. 8 μL of solution containing 2 nM Tb-anti-p4E-BP1 antibody & 10 mM EDTA diluted TR-FRET buffer is then added and incubated for 30 minutes to stop the reaction. The plate is scanned with the Envision plate reader. Ki values are calculated in Assay Explorer using the Morrison ATP-competitive tight binding equation for Ki apparent determination.
Binding Assays: Initial polarization experiments were performed on an Analyst HT 96-384 (Molecular Devices Corp, Sunnyvale, Calif.). […] After an incubation time of 30 minutes at room temperature, the reactions were stopped by the addition of GRP-1 and PIP3-TAMRA probe (Echelon-Inc., Salt Lake City, Utah) 100 nM and 5 nM final concentrations respectively. […] This experiment also establishes the appropriate protein concentration to use in subsequent competition experiments with inhibitors.
After an incubation time of 30 minutes at room temperature, the reactions were stopped by the addition of GRP-1 and PIP3-TAMRA probe (Echelon-Inc., Salt Lake City, Utah) 100 nM and 5 nM final concentrations respectively.

[2] = test system: AKT serine-473 phosphorylation in EGF-stimulated PC-3 cells; experiment: In vitro phospho-AKT serine 473 cellular assay; format: cell-based; settings: Homo sapiens
Protocol: The PC-3 cell line is maintained in RPMI1640 media supplemented with 10% FBS, 2 mM Glutamine, and 10 mM HEPES pH 7.4 at 37° C. in a 5% CO2 humidified incubator.
Cells are seeded in 384-well plates at 7,000 cells/well in […] growth media. After 24 hours, growth media is removed and replaced with RPMI1640 containing no FBS. Cells are treated with 10 concentrations of test compounds or DMSO alone for controls (final DMSO concentration 0.5%) and incubated at 37° C. for 30 minutes. Cells are then stimulated for 10 minutes with 100 ng/ml EGF (final concentration). One column of controls is not stimulated with EGF to observe the signal ratio between stimulated and non-stimulated cells. After 10 minutes, compounds and stimulation media are removed and replaced with 25 μl lysis buffer containing protease inhibitors and phosphatase inhibitors. This buffer contains detergent to bring about cellular disruption. […] Following the transfer of lysate to the MSD plate, AKT in the lysate is captured on the coated antibody by incubation on a shaker at 4° C. for 16 hours. Following the capture step the plate is washed and then incubated for two hours with an antibody to S473 phosphorylated AKT which is conjugated with a Sulfo-Tag. This tag gives a signal when in proximity to the electrode on the base of the MSD plate. Binding the tagged antibody to the captured protein allow detection on a MSD reader.
EC50 values are calculated using MDL Assay Explorer 3.0.1.8 fitting a sigmoidal curve with a variable slope.

[3] = PC-3, read-out: IC50 value, cell proliferation
[4] = PC-3, with PC3 cells, read-out: IC50 value, cell proliferation
[5] = recombinant mTOR+GBL, 8 uM ATP, Ki apparent
[6] = PC-3 cells stimulated with EGF, read-out: EC50 activity level, inhibition of S473 AKT phosphorylation

T1 sequence (P42345 1360-2549): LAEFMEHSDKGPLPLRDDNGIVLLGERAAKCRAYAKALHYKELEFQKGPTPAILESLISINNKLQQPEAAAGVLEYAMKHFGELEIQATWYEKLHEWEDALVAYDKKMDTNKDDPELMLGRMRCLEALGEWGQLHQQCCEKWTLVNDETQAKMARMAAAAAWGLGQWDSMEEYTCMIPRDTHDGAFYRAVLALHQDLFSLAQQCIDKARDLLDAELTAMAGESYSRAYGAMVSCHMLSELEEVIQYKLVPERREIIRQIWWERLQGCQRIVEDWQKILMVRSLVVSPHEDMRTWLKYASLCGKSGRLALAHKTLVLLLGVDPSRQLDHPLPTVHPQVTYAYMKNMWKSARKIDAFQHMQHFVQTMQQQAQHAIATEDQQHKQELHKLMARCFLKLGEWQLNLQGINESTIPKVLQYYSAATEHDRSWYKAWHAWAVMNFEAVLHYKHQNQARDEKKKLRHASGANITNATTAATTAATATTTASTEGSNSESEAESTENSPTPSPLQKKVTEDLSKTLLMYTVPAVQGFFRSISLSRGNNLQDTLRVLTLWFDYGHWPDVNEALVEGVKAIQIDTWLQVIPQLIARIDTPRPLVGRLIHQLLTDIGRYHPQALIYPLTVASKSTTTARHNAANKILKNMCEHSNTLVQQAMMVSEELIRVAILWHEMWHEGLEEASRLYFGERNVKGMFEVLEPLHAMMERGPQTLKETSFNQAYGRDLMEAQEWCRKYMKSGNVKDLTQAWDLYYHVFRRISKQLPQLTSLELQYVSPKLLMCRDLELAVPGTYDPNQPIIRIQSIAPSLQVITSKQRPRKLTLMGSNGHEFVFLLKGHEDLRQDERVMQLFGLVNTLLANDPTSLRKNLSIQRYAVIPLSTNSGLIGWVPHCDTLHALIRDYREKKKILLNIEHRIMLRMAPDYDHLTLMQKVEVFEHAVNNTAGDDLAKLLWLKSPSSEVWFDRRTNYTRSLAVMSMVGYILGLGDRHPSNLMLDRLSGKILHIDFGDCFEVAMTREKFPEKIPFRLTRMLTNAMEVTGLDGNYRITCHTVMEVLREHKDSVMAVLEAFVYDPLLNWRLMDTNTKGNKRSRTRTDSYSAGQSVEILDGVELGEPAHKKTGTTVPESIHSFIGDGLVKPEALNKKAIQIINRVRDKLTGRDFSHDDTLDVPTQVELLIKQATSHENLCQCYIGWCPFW
T1 sequence (Q9BVC4 whole entry partner): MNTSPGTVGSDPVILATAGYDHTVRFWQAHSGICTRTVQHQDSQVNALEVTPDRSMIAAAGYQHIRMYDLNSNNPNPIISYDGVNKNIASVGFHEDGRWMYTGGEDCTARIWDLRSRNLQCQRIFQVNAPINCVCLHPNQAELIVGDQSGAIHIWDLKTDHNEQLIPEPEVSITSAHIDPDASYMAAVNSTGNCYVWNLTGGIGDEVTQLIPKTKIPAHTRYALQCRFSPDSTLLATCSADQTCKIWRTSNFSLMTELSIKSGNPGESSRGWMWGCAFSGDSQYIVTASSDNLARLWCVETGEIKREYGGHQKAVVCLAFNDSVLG

| pKi [1] | pIC50 (PC3 cells; [4]) | Structure (SMILES) | pKi [1, 5] | also measured |
| --- | --- | --- | --- | --- |
| – | 5.00 | CCNC(=O)Nc1ccc(-c2nc(N3CCOC[C@H]3C)c3c(ncn3C)n2)cc1 [Compound 103, (R)-1-ethyl-3-(4-(7-methyl-6-(3-methylmorpholino)-7H-purin-2-yl)phenyl)urea] | – | – |
| – | 6.53 | CCNC(=O)Nc1ccc(-c2nc(N3CCOC[C@@H]3C)c3c(ncn3C)n2)cc1 [Compound 102, (S)-1-ethyl-3-(4-(7-methyl-6-(3-methylmorpholino)-7H-purin-2-yl)phenyl)urea] | – | – |
| 6.84 | – | CCNC(=O)Nc1ccc(-c2nc(N3CCOCC3)c3c(ncn3C)n2)cc1 [Compound 101, 1-ethyl-3-(4-(7-methyl-6-morpholino-7H-purin-2-yl)phenyl)urea] | – | – |
| 7.28 | 5.62 | CCCCc1nc2nc(-c3ccc(NC(=O)NCC)cc3)nc(N3CCOC[C@@H]3C)c2n1C [Compound 107, (S)-1-(4-(8-butyl-7-methyl-6-(3-methylmorpholino)-7H-purin-2-yl)phenyl)-3-ethylurea] | – | – |

The next lines start with the compound.

| Structure (SMILES) | pKi [1] | pIC50 (PC3 cells; [4]) | pKi [1, 5] | also measured |
| --- | --- | --- | --- | --- |
| CCNC(=O)Nc1ccc(-c2nc(N3CCOC[C@@H]3C)c3c(cnn3C)n2)cc1 [Compound 110, (S)-1-ethyl-3-(4-(1-methyl-7-(3-methylmorpholino)-1H-pyrazolo[4,3-d]pyrimidin-5-yl)phenyl)urea] | 9.00 | – | – | pIC50 (PC3 cells; [3]): 6.88; selectivity for mTOR kinase over related PI3 kinase (PI3K-alpha) (PI3K-alpha): 1250 × |
| CCNC(=O)Nc1ccc(-c2nc(N3C[C@@H]4C[C@H]3CO4)c3c(cnn3C)n2)cc1 [Compound 109, 1-(4-(7-((1S,4S)-2-oxa-5-azabicyclo[2.2.1]heptan-5-yl)-1-methyl-1H-pyrazolo[4,3-d]pyrimidin-5-yl)phenyl)-3-ethylurea] | 8.10 | – | – | pIC50 (PC3 cells; [3]): 6.40 |
| CCNC(=O)Nc1ccc(-c2nc(N3CCOC[C@@H]3C)c3ncn(CC)c3n2)cc1 [(S)-1-ethyl-3-(4-(9-ethyl-6-(3-methylmorpholino)-9H-purin-2-yl)phenyl)urea, reference compound] | – | – | – | selectivity for mTOR kinase over related PI3 kinase (PI3K-alpha) (PI3K-alpha): 45 × |
| CCNC(=O)Nc1ccc(-c2nc(N3CCOC[C@@H]3CC)c3c(ncn3C)n2)cc1 [Compound 104, (S)-1-ethyl-3-(4-(6-(3-ethylmorpholino)-7-methyl-7H-purin-2-yl)phenyl)urea] | – | 6.13 | 8.40 | pEC50 ([2]; PC-3, read-out: EC50 activity level, inhibition of S473 AKT phosphorylation): 7.16 |
| C[C@H]1COCCN1c1nc(-c2ccc(NC(=O)NC3COC3)cc2)nc2cnn(C)c12 [Compound 113, (S)-1-(4-(1-methyl-7-(3-methylmorpholino)-1H-pyrazolo[4,3-d]pyrimidin-5-yl)phenyl)-3-(oxetan-3-yl)urea] | 7.41 | 5.23 | – | – |
| C[C@H]1COCCN1c1nc(-c2ccc(NC(=O)NCCS(C)(=O)=O)cc2)nc2cnn(C)c12 [Compound 114, (S)-1-(4-(1-methyl-7-(3-methylmorpholino)-1H-pyrazolo[4,3-d]pyrimidin-5-yl)phenyl)-3-(2-(methylsulfonyl)ethyl)urea] | 6.84 | – | – | – |
| CCNC(=O)Nc1ccc(-c2nc(N3CCOC[C@@H]3CC)c3c(n2)c(C)nn3C)cc1 [Compound 112, (S)-1-ethyl-3-(4-(7-(3-ethylmorpholino)-1,3-dimethyl-1H-pyrazolo[4,3-d]pyrimidin-5-yl)phenyl)urea] | – | 7.07 | 8.70 | – |
| CCNC(=O)Nc1ccc(-c2nc(N3CCOC[C@@H]3C)c3c(ncn3CC)n2)cc1 [Compound 106, (S)-1-ethyl-3-(4-(7-ethyl-6-(3-methylmorpholino)-7H-purin-2-yl)phenyl)urea] | – | – | 7.40 | pEC50 [2, 6]: 6.29; pIC50 (PC3 cells; [3]): 5.38; selectivity for mTOR kinase over related PI3 kinase (PI3K-alpha) (PI3K-alpha): 250 × |
| CCNC(=O)Nc1ccc(-c2nc(N3CCOC[C@@H]3C)c3ncn(C)c3n2)cc1 [(S)-1-ethyl-3-(4-(9-methyl-6-(3-methylmorpholino)-9H-purin-2-yl)phenyl)urea, reference compound] | – | – | – | selectivity for mTOR kinase over related PI3 kinase (PI3K-alpha) (PI3K-alpha): 29 × |
| CCNC(=O)Nc1ccc(-c2nc(N3CCCOCC3)c3c(ncn3C)n2)cc1 [Compound 105, 1-ethyl-3-(4-(7-methyl-6-(1,4-oxazepan-4-yl)-7H-purin-2-yl)phenyl)urea] | – | – | 6.92 | – |
| CCNC(=O)Nc1ccc(-c2nc(N3CCOC[C@@H]3CC)c3c(cnn3C)n2)cc1 [Compound 111, (S)-1-ethyl-3-(4-(7-(3-ethylmorpholino)-1-methyl-1H-pyrazolo[4,3-d]pyrimidin-5-yl)phenyl)urea] | 7.55 | 5.54 | – | – |
| CCNC(=O)Nc1ccc(-c2nc(N3CCOC[C@@H]3C)c3c(n2)nc(C(C)(C)O)n3C)cc1 [Compound 108, (S)-1-ethyl-3-(4-(8-(2-hydroxypropan-2-yl)-7-methyl-6-(3-methylmorpholino)-7H-purin-2-yl)phenyl)urea] | – | – | 7.52 | pEC50 [2, 6]: 5.46; pIC50 (PC3 cells; [3]): 5.10 |

Source: patent US8828990B2, “N-7 substituted purine and pyrazolopyrimine compounds, compositions and methods of use” (priority 2009, dated 2014)
